This passage reports IC50 results from patent US20200016159A1, “N3-CYCLICALLY SUBSTITUTED THIENOURACILS AND USE THEREOF” (Bayer Aktiengesellschaft, priority 2016, published 2020).

Molecules are shown by their SMILES.

For the experiment, the target named is T1, human adenosine A2b receptor (Homo sapiens, UniProt P29275).
T1 sequence (P29275 1-332): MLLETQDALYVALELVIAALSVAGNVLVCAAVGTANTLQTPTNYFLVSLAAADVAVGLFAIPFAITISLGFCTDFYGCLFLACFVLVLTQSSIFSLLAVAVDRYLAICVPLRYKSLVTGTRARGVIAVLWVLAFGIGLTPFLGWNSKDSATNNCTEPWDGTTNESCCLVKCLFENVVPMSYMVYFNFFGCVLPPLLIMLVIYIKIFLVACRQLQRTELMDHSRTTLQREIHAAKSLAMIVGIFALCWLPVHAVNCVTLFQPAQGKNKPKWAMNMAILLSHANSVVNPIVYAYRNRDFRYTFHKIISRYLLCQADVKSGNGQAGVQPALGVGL
Description: Cellular in vitro reporter gene test for A2b receptor activity (antagonism of NECA). Type of experiment: cell-based. Set-up: expressed in transfected cells; host or cells: CHO-K1 (Chinese hamster ovary) with CRE-luciferase reporter. As to conditions: recombinant CHO-K1 cells, CRE-luciferase reporter, co-incubation with EC50 concentration of NECA, 3 hours. The essentials:
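CHO-K1 cells expressing recombinant human A2b receptor plus a CRE-driven firefly luciferase reporter. Compounds co-incubated with NECA at its same-day EC50 concentration; luminescence read 3 hours after NECA addition. IC50 values, sometimes means of several determinations rounded to two significant figures.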
(Reporter assays use an easily measured gene product as a stand-in for the process of interest.)

The term IC50 denotes the concentration that inhibits the measured activity by half. As to `COCCn1c(=O)n([C@H]2C[C@H](OC)C2)c(=O)c2c(C)c(CN3CCNC3=O)sc21` [Example 149, 3-(trans-3-Methoxycyclobutyl)-1-(2-methoxyethyl)-5-methyl-6-[(2-oxoimidazolidin-1-yl)methyl]thieno[2,3-d]pyrimidine-2,4(1H,3H)-dione], the IC50 stood at 0.082 µM.

In the case of `COCCn1c(=O)n([C@H]2C[C@H](OC)C2)c(=O)c2c(C)c(CN3CCNC3=NC#N)sc21` [Example 150, [1-{[3-(trans-3-Methoxycyclobutyl)-1-(2-methoxyethyl)-5-methyl-2,4-dioxo-1,2,3,4-tetrahydrothieno[2,3-d]pyrimidin-6-yl]methyl}imidazolidin-2-ylidene]cyanamide], the IC50 came to 0.12 µM.

With `COCCn1c(=O)n([C@H]2C[C@H](OC)C2)c(=O)c2c(C)c(CN3CCNC3=NC(=O)OC)sc21` [Example 151, Methyl [1-{[3-(trans-3-methoxycyclobutyl)-1-(2-methoxyethyl)-5-methyl-2,4-dioxo-1,2,3,4-tetrahydrothieno[2,3-d]pyrimidin-6-yl]methyl}imidazolidin-2-ylidene]carbamate], the IC50 is 0.045 µM.

With `COCCn1c(=O)n([C@H]2C[C@H](OC)C2)c(=O)c2c(C)c(CN3CCNC(=O)C3=O)sc21` [Example 152, 6-[(2,3-Dioxopiperazin-1-yl)methyl]-3-(trans-3-methoxycyclobutyl)-1-(2-methoxyethyl)-5-methylthieno[2,3-d]pyrimidine-2,4(1H,3H)-dione], the IC50 amounted to 0.34 µM.

As for `COCCn1c(=O)n([C@H]2C[C@H](OC)C2)c(=O)c2c(C)c(Cn3nc[nH]c3=O)sc21` [Example 153, 3-(trans-3-Methoxycyclobutyl)-1-(2-methoxyethyl)-5-methyl-6-[(5-oxo-4,5-dihydro-1H-1,2,4-triazol-1-yl)methyl]thieno[2,3-d]pyrimidine-2,4(1H,3H)-dione], the IC50 turned out to be 0.22 µM.

For `CO[C@H]1C[C@@H](n2c(=O)c3c(C)c(CN4CCNC4=O)sc3n(CCC(F)(F)F)c2=O)C1` [Example 154, 3-(cis-3-Methoxycyclobutyl)-5-methyl-6-[(2-oxoimidazolidin-1-yl)methyl]-1-(3,3,3-trifluoropropyl)thieno[2,3-d]pyrimidine-2,4(1H,3H)-dione], the IC50 was found to be 0.023 µM.

Turning to `CO[C@H]1C[C@@H](n2c(=O)c3c(C)c(CN4CCNC4=NC#N)sc3n(CCC(F)(F)F)c2=O)C1` [Example 155, [1-{[3-(cis-3-Methoxycyclobutyl)-5-methyl-2,4-dioxo-1-(3,3,3-trifluoropropyl)-1,2,3,4-tetrahydrothieno[2,3-d]pyrimidin-6-yl]methyl}imidazolidin-2-ylidene]cyanamide], the IC50 amounted to 0.056 µM.

Turning to `COC(=O)N=C1NCCN1Cc1sc2c(c1C)c(=O)n([C@H]1C[C@@H](OC)C1)c(=O)n2CCC(F)(F)F` [Example 156, Methyl [1-{[3-(cis-3-methoxycyclobutyl)-5-methyl-2,4-dioxo-1-(3,3,3-trifluoropropyl)-1,2,3,4-tetrahydrothieno[2,3-d]pyrimidin-6-yl]methyl}imidazolidin-2-ylidene]carbamate], the IC50 was 0.018 µM.

On to `CO[C@H]1C[C@@H](n2c(=O)c3c(C)c(CN4CCNC(=O)C4=O)sc3n(CCC(F)(F)F)c2=O)C1` [Example 157, 6-[(2,3-Dioxopiperazin-1-yl)methyl]-3-(cis-3-methoxycyclobutyl)-5-methyl-1-(3,3,3-trifluoropropyl)thieno[2,3-d]pyrimidine-2,4(1H,3H)-dione], for which the IC50 amounted to 0.063 µM.

For the molecule `CO[C@H]1C[C@@H](n2c(=O)c3c(C)c(Cn4nc[nH]c4=O)sc3n(CCC(F)(F)F)c2=O)C1` [Example 158, 3-(cis-3-Methoxycyclobutyl)-5-methyl-6-[(5-oxo-4,5-dihydro-1H-1,2,4-triazol-1-yl)methyl]-1-(3,3,3-trifluoropropyl)thieno[2,3-d]pyrimidine-2,4(1H,3H)-dione], the half-maximal inhibitory concentration (IC50) is 0.18 µM.

Consider `COCCn1c(=O)n([C@H]2C[C@@H](OC)C2)c(=O)c2c(C)c(CN3CCNC3=O)sc21` [Example 159, 3-(cis-3-Methoxycyclobutyl)-1-(2-methoxyethyl)-5-methyl-6-[(2-oxoimidazolidin-1-yl)methyl]thieno[2,3-d]pyrimidine-2,4(1H,3H)-dione], for which the half-maximal inhibitory concentration (IC50) turned out to be 0.2 µM.

On to `COCCn1c(=O)n([C@H]2C[C@@H](OC)C2)c(=O)c2c(C)c(CN3CCNC3=NC#N)sc21` [Example 160, [1-{[3-(cis-3-Methoxycyclobutyl)-1-(2-methoxyethyl)-5-methyl-2,4-dioxo-1,2,3,4-tetrahydrothieno[2,3-d]pyrimidin-6-yl]methyl}imidazolidin-2-ylidene]cyanamide], for which the IC50 was 0.2 µM.

Consider `COCCn1c(=O)n([C@H]2C[C@@H](OC)C2)c(=O)c2c(C)c(CN3CCNC3=NC(=O)OC)sc21` [Example 161, Methyl [1-{[3-(cis-3-methoxycyclobutyl)-1-(2-methoxyethyl)-5-methyl-2,4-dioxo-1,2,3,4-tetrahydrothieno[2,3-d]pyrimidin-6-yl]methyl}imidazolidin-2-ylidene]carbamate], for which the half-maximal inhibitory concentration (IC50) turned out to be 0.13 µM.

With `COCCn1c(=O)n([C@H]2C[C@@H](OC)C2)c(=O)c2c(C)c(CN3CCNC(=O)C3=O)sc21` [Example 162, 6-[(2,3-Dioxopiperazin-1-yl)methyl]-3-(cis-3-methoxycyclobutyl)-1-(2-methoxyethyl)-5-methylthieno[2,3-d]pyrimidine-2,4(1H,3H)-dione], the IC50 was 0.73 µM.

On to `COCCn1c(=O)n([C@H]2C[C@@H](OC)C2)c(=O)c2c(C)c(Cn3nc[nH]c3=O)sc21` [Example 163, 3-(cis-3-Methoxycyclobutyl)-1-(2-methoxyethyl)-5-methyl-6-[(5-oxo-4,5-dihydro-1H-1,2,4-triazol-1-yl)methyl]thieno[2,3-d]pyrimidine-2,4(1H,3H)-dione], for which the IC50 was 1.2 µM.

Take `Cc1c(CN2CCNC2=O)sc2c1c(=O)n(C1CC(C)(C)C1)c(=O)n2CCC(F)(F)F` [Example 164, 3-(3,3-Dimethylcyclobutyl)-5-methyl-6-[(2-oxoimidazolidin-1-yl)methyl]-1-(3,3,3-trifluoropropyl)thieno[2,3-d]pyrimidine-2,4(1H,3H)-dione]: the IC50 stood at 0.0046 µM.

Take `Cc1c(CN2CCNC2=NC#N)sc2c1c(=O)n(C1CC(C)(C)C1)c(=O)n2CCC(F)(F)F` [Example 165, [1-{[3-(3,3-Dimethylcyclobutyl)-5-methyl-2,4-dioxo-1-(3,3,3-trifluoropropyl)-1,2,3,4-tetrahydrothieno[2,3-d]pyrimidin-6-yl]methyl}imidazolidin-2-ylidene]cyanamide]: the half-maximal inhibitory concentration (IC50) came to 0.014 µM.

For the molecule `COC(=O)N=C1NCCN1Cc1sc2c(c1C)c(=O)n(C1CC(C)(C)C1)c(=O)n2CCC(F)(F)F` [Example 166, Methyl [1-{[3-(3,3-dimethylcyclobutyl)-5-methyl-2,4-dioxo-1-(3,3,3-trifluoropropyl)-1,2,3,4-tetrahydrothieno[2,3-d]pyrimidin-6-yl]methyl}imidazolidin-2-ylidene]carbamate], the concentration for half-maximal inhibition (IC50) turned out to be 0.0047 µM.

On to `Cc1c(CN2CCNC(=O)C2=O)sc2c1c(=O)n(C1CC(C)(C)C1)c(=O)n2CCC(F)(F)F` [Example 167, 3-(3,3-Dimethylcyclobutyl)-6-[(2,3-dioxopiperazin-1-yl)methyl]-5-methyl-1-(3,3,3-trifluoropropyl)thieno[2,3-d]pyrimidine-2,4(1H,3H)-dione], for which the IC50 was 0.0053 µM.

Take `Cc1c(Cn2nc[nH]c2=O)sc2c1c(=O)n(C1CC(C)(C)C1)c(=O)n2CCC(F)(F)F` [Example 168, 3-(3,3-Dimethylcyclobutyl)-5-methyl-6-[(5-oxo-4,5-dihydro-1,2,4-triazol-1-yl)methy]-1-(3,3,3-trifluoropropyl)thieno[2,3-d]pyrimidine-2,4(1H,3H)-dione]: the concentration for half-maximal inhibition (IC50) turned out to be 0.016 µM.

For `COCCn1c(=O)n(C2CC(C)(C)C2)c(=O)c2c(C)c(CN3CCNC3=O)sc21` [Example 169, 3-(3,3-Dimethylcyclobutyl)-1-(2-methoxyethyl)-5-methyl-6-[(2-oxoimidazolidin-1-yl)methyl]thieno[2,3-d]pyrimidine-2,4(1H,3H)-dione], the half-inhibitory concentration (IC50) stood at 0.014 µM.

Take `COCCn1c(=O)n(C2CC(C)(C)C2)c(=O)c2c(C)c(CN3CCNC3=NC#N)sc21` [Example 170, [1-{[3-(3,3-Dimethylcyclobutyl)-1-(2-methoxyethyl)-5-methyl-2,4-dioxo-1,2,3,4-tetrahydrothieno[2,3-d]pyrimidin-6-yl]methyl}imidazolidin-2-ylidene]cyanamide]: the half-maximal inhibitory concentration (IC50) is 0.0086 µM.

For `COCCn1c(=O)n(C2CC(C)(C)C2)c(=O)c2c(C)c(CN3CCNC3=NC(=O)OC)sc21` [Example 171, Methyl [1-{[3-(3,3-dimethylcyclobutyl)-1-(2-methoxyethyl)-5-methyl-2,4-dioxo-1,2,3,4-tetrahydrothieno[2,3-d]pyrimidin-6-yl]methyl}imidazolidin-2-ylidene]carbamate], the 50% inhibitory concentration (IC50) is 0.017 µM.

`COCCn1c(=O)n(C2CC(C)(C)C2)c(=O)c2c(C)c(CN3CCNC(=O)C3=O)sc21` [Example 172, 3-(3,3-Dimethylcyclobutyl)-6-[(2,3-dioxopiperazin-1-yl)methyl]-1-(2-methoxyethyl)-5-methylthieno[2,3-d]pyrimidine-2,4(1H,3H)-dione]: the IC50 was 0.036 µM.
